According to patent US8178522B2, “Thiazoles” (Hoffmann-La Roche Inc., priority 2009, dated 2012):

Target: T1, GABA A α5 (α5β3γ2) (Homo sapiens, UniProt P18507+P31644)
T1 construct: expressed in transfected cells; host or cells: HEK293, transiently transfected; membrane preparation
Experiment: [3H]flumazenil competition binding, human GABA A α5 receptor
Details: human receptor α5β3γ2 transiently transfected in HEK293 cells; competition for [3H]flumazenil 0.5 nM; 1 hour at 4° C.; means of two determinations; read-out: hKi GABA A α5
How it was run: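 Competition with [3H]flumazenil at membranes from HEK293 cells transiently expressing human α5β3γ2, in Krebs-tris buffer pH 7.5. Equilibrium 1 hour at 4° C, filtration with ice-cold 50 mM Tris wash, scintillation counting. Ki values are means of two determinations.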

Structure (SMILES) | Ki [nM]
Cc1nc(/C=C/c2c(-c3ccc(F)cn3)noc2C)sc1C(=O)NC1CCOCC1 [Example 72, 2-{(E)-2-[3-(5-Fluoro-pyridin-2-yl)-5-methyl-isoxazol-4-yl]-vinyl}-4-methyl-thiazole-5-carboxylic acid (tetrahydro-pyran-4-yl)-amide] | 0.6
Cc1onc(-c2ccc(F)cn2)c1CCc1ncc(C(=O)NC(C)C)s1 [Example 41, 2-{2-[3-(5-Fluoro-pyridin-2-yl)-5-methyl-isoxazol-4-yl]-ethyl}-thiazole-5-carboxylic acid isopropylamide] | 10.8
CCCCc1noc(C)c1/C=C/c1nc(C)c(C(=O)N2CC(F)(F)C2)s1 [Example 108, {2-[(E)-2-(3-Butyl-5-methyl-isoxazol-4-yl)-vinyl]-4-methyl-thiazol-5-yl}-(3,3-difluoro-azetidin-1-yl)-methanone] | 24.5
Cc1onc(-c2ccccc2)c1/C=C/c1ncc(C(=O)NC2CCOC2)s1 (stereo in doubt) [Example 64, (S)-2-[(E)-2-(5-Methyl-3-phenyl-isoxazol-4-yl)-vinyl]-thiazole-5-carboxylic acid (tetra-hydro-furan-3-yl)-amide] | 1.7
Cc1onc(-c2ccc(F)cn2)c1/C=C/c1ncc(C(=O)NC(C)C)s1 [Example 78, 2-{(E)-2-[3-(5-Fluoro-pyridin-2-yl)-5-methyl-isoxazol-4-yl}-vinyl]-thiazole-5-carboxylic acid isopropylamide] | 2.9
CCCCc1noc(C)c1CCc1nc(C)c(C(=O)NC(C)C)s1 [Example 48, 2-[2-(3-Butyl-5-methyl-isoxazol-4-yl)-ethyl]-4-methyl-thiazole-5-carboxylic acid iso-propylamide] | 23.1
CCCCc1noc(C)c1/C=C/c1nc(C)c(C(=O)NC(C)C)s1 [Example 93, 2-[(E)-2-(3-Butyl-5-methyl-isoxazol-4-yl)-vinyl]-4-methyl-thiazole-5-carboxylic acid isopropylamide] | 1.9
Cc1onc(-c2ccccc2)c1CNc1ncc(C(=O)NC(C)C)s1 [Example 135, 2-[(5-Methyl-3-phenyl-isoxazol-4-ylmethyl)-amino]-thiazole-5-carboxylic acid isoprop-ylamide] | 9
Cc1nc(CCc2c(-c3ccc(F)cn3)noc2C)sc1C(=O)NC(C)C [Example 32, 2-{2-[3-(5-Fluoro-pyridin-2-yl)-5-methyl-isoxazol-4-yl]-ethyl}-4-methyl-thiazole-5-carboxylic acid isopropylamide] | 7
COC(=O)c1cnc(CCc2c(-c3ccccn3)noc2C)s1 [Example 21, 2-[2-(5-Methyl-3-pyridin-2-yl-isoxazol-4-yl)-ethyl]-thiazole-5-carboxylic acid methyl ester] | 40.2
CCCCc1noc(C)c1/C=C/c1nc(C)c(C(=O)N[C@H](CC)CO)s1 [Example 105, 2-[(E)-2-(3-Butyl-5-methyl-isoxazol-4-yl)-vinyl]-4-methyl-thiazole-5-carboxylic acid ((R)-1-hydroxymethyl-propyl)-amide] | 7.9
Cc1nc(/C=C/c2c(-c3ccc(F)cn3)noc2C)sc1C(=O)NC(C)C [Example 71, 2-{(E)-2-[3-(5-Fluoro-pyridin-2-yl)-5-methyl-isoxazol-4-yl]-vinyl}-4-methyl-thiazole-5-carboxylic acid isopropylamide] | 1.5
Cc1nc(CCc2c(-c3ccc(F)cn3)noc2C)sc1C(=O)NC1CCOCC1 [Example 31, 2-{2-[3-(5-Fluoro-pyridin-2-yl)-5-methyl-isoxazol-4-yl]ethyl}-4-methyl-thiazole-5-carboxylic acid (tetrahydro-pyran-4-yl)-amide] | 5.2
Cc1nc(/C=C/c2c(-c3ccccc3)noc2C)sc1C(=O)NC1CCOC1 (centres unmarked) [Example 69, 4-Methyl-2-[(E)-2-(5-methyl-3-phenyl-isoxazol-4-yl)-vinyl]-thiazole-5-carboxylic acid (tetrahydro-furan-3-yl)-amide] | 0.3
Cc1nc(CCc2conc2-c2ccccn2)sc1C(=O)NC1CCOCC1 [Example 19, 4-Methyl-2-[2-(3-pyridin-2-yl-isoxazol-4-yl)-ethyl]-thiazole-5-carboxylic acid (tetra-hydro-pyran-4-yl)-amide] | 87.6
CCCCc1noc(C)c1/C=C/c1nc(C)c(C(=O)N[C@H](C)C(F)(F)F)s1 [Example 107, 2-[(E)-2-(3-Butyl-5-methyl-isoxazol-4-yl)-vinyl]-4-methyl-thiazole-5-carboxylic acid ((R)-2,2,2-trifluoro-1-methyl-ethyl)-amide] | 2.6
Cc1onc(-c2ccccc2)c1/C=C/c1ncc(C(=O)NC2CCOCC2)s1 [Example 63, 2-[(E)-2-(5-Methyl-3-phenyl-isoxazol-4-yl)-vinyl]-thiazole-5-carboxylic acid (tetra-hydro-pyran-4-yl)-amide] | 1.2
CCCCc1noc(C)c1CCc1nc(C)c(C(=O)N[C@H](C)CO)s1 [Example 55, 2-[2-(3-Butyl-5-methyl-isoxazol-4-yl)-ethyl]-4-methyl-thiazole-5-carboxylic acid ((R)-2-hydroxy-1-methyl-ethyl)-amide] | 35.6

Structure (SMILES) | Ki [nM]
Cc1nc(/C=C/c2c(-c3ccc(F)cn3)noc2C)sc1C(=O)NC1CC1 [Example 73, 2-{(E)-2-[3-(5-Fluoro-pyridin-2-yl)-5-methyl-isoxazol-4-yl]-vinyl}-4-methyl-thiazole-5-carboxylic acid cyclopropylamide] | 1.6
Cc1nc(CCc2c(-c3ccc(F)cn3)noc2C)sc1C(=O)NC1CC1 [Example 33, 2-{2-[3-(5-Fluoro-pyridin-2-yl)-5-methyl-isoxazol-4-yl]-ethyl}-4-methyl-thiazole-5-carboxylic acid cyclopropylamide] | 9
CCCCc1noc(C)c1/C=C/c1nc(C)c(C(=O)NC2CCC2)s1 [Example 115, 2-[(E)-2-(3-Butyl-5-methyl-isoxazol-4-yl)-vinyl]-4-methyl-thiazole-5-carboxylic acid cyclobutylamide] | 4.7
CCCCc1noc(C)c1/C=C/c1ncc(C(=O)NC(C)C)s1 [Example 124, 2-[(E)-2-(3-Butyl-5-methyl-isoxazol-4-yl)-vinyl]-thiazole-5-carboxylic acid isoprop-ylamide] | 5.5
CCCCc1noc(C)c1/C=C/c1nc(C)c(C(=O)NCC(F)(F)F)s1 [Example 119, 2-[(E)-2-(3-Butyl-5-methyl-isoxazol-4-yl)-vinyl]-4-methyl-thiazole-5-carboxylic acid (2,2,2-trifluoro-ethyl)-amide] | 2.4
Cc1nc(/C=C/c2c(-c3ccc(F)cn3)noc2C)sc1C(N)=O [Example 76, 2-{(E)-2-[3-(5-Fluoro-pyridin-2-yl)-5-methyl-isoxazol-4-yl]-vinyl}-4-methyl-thiazole-5-carboxylic acid amide] | 4.1
CCCCc1noc(C)c1/C=C/c1nc(C)c(C(=O)NC(C)(C)CO)s1 [Example 117, 2-[(E)-2-(3-Butyl-5-methyl-isoxazol-4-yl)-vinyl]-4-methyl-thiazole-5-carboxylic acid (2-hydroxy-1,1-dimethyl-ethyl)-amide] | 21
CCNC(=O)c1sc(CCc2c(-c3ccccn3)noc2C)nc1C [Example 15, 4-Methyl-2-[2-(5-methyl-3-pyridin-2-yl-isoxazol-4-yl)-ethyl]-thiazole-5-carboxylic acid ethylamide] | 12
CCCCc1noc(C)c1/C=C/c1nc(C)c(C(=O)N2CC(OC)C2)s1 [Example 109, {2-[(E)-2-(3-Butyl-5-methyl-isoxazol-4-yl)-vinyl]-4-methyl-thiazol-5-yl}-(3-methoxy-azetidin-1-yl)-methanone] | 33.2
Cc1onc(-c2ccccc2)c1/C=C/c1ncc(C(=O)NC(C)C)s1 [Example 65, 2-[(E)-2-(5-Methyl-3-phenyl-isoxazol-4-yl)-vinyl]-thiazole-5-carboxylic acid isoprop-ylamide] | 1.3
CNC(=O)c1cnc(CCc2c(-c3ccc(F)cn3)noc2C)s1 [Example 47, 2-{2-[3-(5-Fluoro-pyridin-2-yl)-5-methyl-isoxazol-4-yl]-ethyl}-thiazole-5-carboxylic acid methylamide] | 26.3
Cc1onc(-c2ccc(F)cn2)c1CCc1ncc(C(=O)NCCO)s1 [Example 45, 2-{2-[3-(5-Fluoro-pyridin-2-yl)-5-methyl-isoxazol-4-yl]-ethyl}-thiazole-5-carboxylic acid (2-hydroxy-ethyl)-amide] | 26.3
CCCCc1noc(C)c1/C=C/c1nc(C)c(C(=O)NC2CCOCC2)s1 [Example 96, 2-[(E)-2-(3-Butyl-5-methyl-isoxazol-4-yl)-vinyl]-4-methyl-thiazole-5-carboxylic acid (tetrahydro-pyran-4-yl)-amide] | 1.5
CCCCc1noc(C)c1/C=C/c1nc(C)c(C(=O)NN(C)C)s1 [Example 102, 2-[(E)-2-(3-Butyl-5-methyl-isoxazol-4-yl)-vinyl]-4-methyl-thiazole-5-carboxylic acid N′,N′-dimethyl-hydrazide] | 4.4
CCCCc1noc(C)c1CCc1ncc(C(=O)NCC(C)O)s1 (centres unmarked) [Example 62, 2-[2-(3-Butyl-5-methyl-isoxazol-4-yl)-ethyl]-thiazole-5-carboxylic acid (2-hydroxy-propyl)-amide] | 45
Cc1nc(/C=C/c2c(-c3ccc(F)cn3)noc2C)sc1C(=O)NC(C)(C)CO [Example 74, 2-{(E)-2-[3-(5-Fluoro-pyridin-2-yl)-5-methyl-isoxazol-4-yl]-vinyl}-4-methyl-thiazole-5-carboxylic acid (2-hydroxy-1,1-dimethyl-ethyl)-amide] | 8.4
CCCCc1noc(C)c1COc1ncc(C(=O)NC(C)C)s1 [Example 132, 2-(3-Butyl-5-methyl-isoxazol-4-ylmethoxy)-thiazole-5-carboxylic acid isopropylamide] | 10.2
